Read-outs that look alike come from different tables or passages of the source.
How the values were obtained:
NLRP3 = biological target: T1, NLRP3 (Homo sapiens, UniProt Q96P20); assay: Human whole blood (hWB) NLRP3 assay; assay type: cell-based; conditions: LPS priming 1 μg/ml, ATP activation, read-out: hWB IC50 (raw activity data)
T1 construct: endogenous in cells
Method: Heparin lithium coated tubes were used to collect blood from volunteers. Blood samples were distributed on 96 well plates using 90 μl per well. Priming was performed by adding 5 μl of LPS (O26:B6; Sigma L-2654) at a final concentration of 1 μg/ml for 4.5 hours in a humidified incubator with 37° C., 5% CO2. Thirty minutes prior to NLRP3 activation, 5 μl of a 20× compound solution or vehicle (2% DMSO) was added to each well and plates were incubated on a shaker (450 rpm) in a humidified incubator with 37° C., 5% CO2. Activation was then performed by adding 3.3 μl of a 31×ATP solution per well. At the end of the 30 minutes stimulation, the plates were centrifuged (800 g, 10 min. room temperature) and the plasma from each well was frozen at −80° C. […] levels in the supernatant were analyzed using a mesoscale discovery assay (MSD K151TUK) according to the manufacturers' instructions. Human whole blood was drawn from healthy volunteers after obtaining written informed consent.
Table D assigns each compound a code for potency in the human whole blood (hWB) NLRP3 Assay: A or B. According to the code. […] The corresponding raw activity data is also included.

[1] = Brain levels (kp and kpu,u) after oral administration; assay type: in vivo, CDI mice; conditions: mice, 20 mpk PO; for Kp at 24 h / Kpu,u (unbound brain-to-plasma ratio): CDI, mouse, brain / plasma, po, 20 mg/kg; for Kp at 24 h: whole brain AUC over 24 h divided by plasma AUC; for Kpu,u (unbound brain-to-plasma ratio) / kpu,u (code): kp corrected with mouse plasma protein binding and mouse brain homogenate binding
Method: The in vivo total brain to plasma ratio was assessed in CDI mice after oral administration of the compound. Blood was collected at several timepoints up to 24 h, and transferred into plastic micro centrifuge tubes with EDTA-K2 as anticoagulant. Blood samples were centrifuged at 4000 g for 5 minutes at 4° C. to obtain plasma, then immediately frozen and stored at −75±15° C. prior to analysis. Animals were terminally anaesthetized with a rising concentration of CO2 gas at about 1 minute. At selected timepoints, whole brains were removed from the skull, rinsed in cold PBS to remove blood, dried with clean gauze, then frozen in liquid nitrogen and kept at −75±15° C. before analysis. At the time of analysis, brain samples were homogenized with PBS by tissue weight (g) to PBS volume (mL) ratio 1:3. Plasma and brain drug levels were quantified by LC/MS/MS on a AB Sciex Triple Quad 5500+ instrument, after separation on a HALO 160A ES-C18, 2.7 μm 2.1-50 mm column. Quantitation was performed using a calibration curve prepared in blank plasma or blank brain homogenate. The software WinNonlin (Phoenix™) was used for pharmacokinetic analysis from the concentrations versus time data, including the AUCinf and AUClast. The Kp ratio (total brain concentration over total plasma concentration) was calculated as (AUCtot,br)/(AUCtot,pl).
The unbound brain exposure was assessed as Kpuu, which is the free brain/free plasma concentration ratio (Cu,br/Cu,pl). The Cu,br/Cu,pl ratios were obtained from in vivo total brain to plasma ratios (Ctot,br/Ctot,pl) by using in vitro determined Fu,br and Fu,pl.
Plasma protein binding and brain homogenate protein binding were measured by equilibrium dialysis in a HTDialysis plate. The dialysis membranes were soaked in ultrapure water for 60 minutes to separate strips, then in 20% ethanol for 20 minutes, finally in dialysis buffer for 20 minutes. The dialysis set up was assembled according to the manufacturer's instruction. Each cell received 150 μL of plasma or brain homogenate spiked with 1 mM of compound, and dialyzed against an equal volume of dialysis buffer (PBS). The dialysis plate was sealed and incubated in an incubator at 37° C. with 5% CO2 at 100 rpm for 6 hours. At the end of incubation, compound concentration was measured in both chambers by LC-MS/MS on a Triple Quad™ 5500 from AB Inc after separation on a XSelect Hss T3 2.5μ (2.1×30 mm) column. Free fraction (Fu) was calculated as (Peak Area Ratio buffer chamber/Peak Area Ratio plasma chamber).
Kpuu was calculated as (AUCtot,br×Fu,br)/(AUCtot,pl×Fu,pl).
The below table also assigns each compound a code for kp and kpu,u values: A or B. According to the code. A represents a value of >0.3 and B represents a value of ≤0.3. […] The kpu,u was then calculated upon correcting this kp value with mouse plasma protein binding and mouse brain homogenates binding. A Kpu,u value >0.3 is brain penetrant, and Kpu,u value less than or equal to 0.3 is not brain penetrant. N.D.=not determined. The corresponding raw kp and kpu,u data is also included.

T1 sequence (Q96P20 whole entry): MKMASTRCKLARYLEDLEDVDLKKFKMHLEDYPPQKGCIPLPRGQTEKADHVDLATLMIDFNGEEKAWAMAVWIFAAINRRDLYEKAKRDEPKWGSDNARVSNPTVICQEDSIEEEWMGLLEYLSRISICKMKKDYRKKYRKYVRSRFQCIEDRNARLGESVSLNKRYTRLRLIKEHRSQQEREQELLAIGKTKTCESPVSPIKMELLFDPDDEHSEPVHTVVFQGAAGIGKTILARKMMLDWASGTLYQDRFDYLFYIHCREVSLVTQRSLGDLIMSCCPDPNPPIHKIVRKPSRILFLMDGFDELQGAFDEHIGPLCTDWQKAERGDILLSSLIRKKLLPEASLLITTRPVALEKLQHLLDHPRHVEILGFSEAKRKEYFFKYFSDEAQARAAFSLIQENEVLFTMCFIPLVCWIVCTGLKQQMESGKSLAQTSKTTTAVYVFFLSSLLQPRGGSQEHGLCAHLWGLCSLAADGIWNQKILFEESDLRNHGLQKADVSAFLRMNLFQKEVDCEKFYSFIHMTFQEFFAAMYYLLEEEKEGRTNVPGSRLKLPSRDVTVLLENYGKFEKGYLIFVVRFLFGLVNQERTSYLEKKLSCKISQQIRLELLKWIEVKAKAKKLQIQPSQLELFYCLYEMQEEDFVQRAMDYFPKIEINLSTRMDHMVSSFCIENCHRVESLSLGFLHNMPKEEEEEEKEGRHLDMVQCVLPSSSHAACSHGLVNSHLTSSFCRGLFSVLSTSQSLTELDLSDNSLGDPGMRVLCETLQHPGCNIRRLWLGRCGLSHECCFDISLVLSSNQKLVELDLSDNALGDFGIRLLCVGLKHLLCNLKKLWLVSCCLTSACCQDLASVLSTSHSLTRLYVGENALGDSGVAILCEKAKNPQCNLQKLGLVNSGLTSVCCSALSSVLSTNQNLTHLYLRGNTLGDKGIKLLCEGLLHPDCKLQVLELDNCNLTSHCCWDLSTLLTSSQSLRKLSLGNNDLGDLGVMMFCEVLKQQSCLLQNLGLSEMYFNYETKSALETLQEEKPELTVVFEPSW

## Cc1cc(O)c(-c2nnc(N[C@@H]3COC(C)(C)C3)c3cnccc23)c(Cl)c1 (single isomer, unassigned) [Compound 26B*]
NLRP3
  IC50: 1.3 µM

## C[C@@H]1COCC[C@H]1Nc1nnc(-c2ccc(Cl)cc2O)c2ccncc12 (single isomer, unassigned) [Compound 18A*]
[1]; read-out: kp (code)
  Kp at 24 h: > 0.3
[1]; read-out: kp (raw)
  Kp at 24 h: 0.73
[1]
  Kpu,u (unbound brain-to-plasma ratio): 0.3
  kpu,u (code): A (A represents a value of >0.3)
NLRP3
  IC50: 1.1 µM

## Oc1cc(C(F)(F)F)ccc1-c1nnc(N[C@H]2COC3(CC3)C2)c2cnccc12 (single isomer, unassigned) [Compound 19]
[1]; read-out: kp (code)
  Kp at 24 h: > 0.3
[1]; read-out: kp (raw)
  Kp at 24 h: 1.4
[1]
  Kpu,u (unbound brain-to-plasma ratio): 0.81
  kpu,u (code): A (A represents a value of >0.3)
NLRP3
  IC50: 1.4 µM

## C[C@@H]1C[C@@H](Nc2nnc(-c3ccc(Cl)cc3O)c3ccncc23)CCO1 (single isomer, unassigned) [Compound 25D*]
[1]; read-out: kp (code)
  Kp at 24 h: > 0.3
[1]; read-out: kp (raw)
  Kp at 24 h: 1
[1]
  Kpu,u (unbound brain-to-plasma ratio): 0.2
  kpu,u (code): B (B represents a value of ≤0.3)
NLRP3
  IC50: 1.2 µM

## C[C@@H]1C[C@H](Nc2nnc(-c3ccc(Cl)cc3O)c3ccncc23)CCO1 (single isomer, unassigned) [Compound 25A*]
[1]; read-out: kp (code)
  Kp at 24 h: > 0.3
[1]; read-out: kp (raw)
  Kp at 24 h: 1.1
[1]
  Kpu,u (unbound brain-to-plasma ratio): 0.1
  kpu,u (code): B (B represents a value of ≤0.3)
NLRP3
  IC50: 0.58 µM

## CC1(C)C[C@H](Nc2nnc(-c3ccc(C(F)F)cc3O)c3ccncc23)CCO1 (single isomer, unassigned) [Compound 16B*]
NLRP3
  IC50: 12 µM

## CC1(C)OCC[C@H]1Nc1nnc(-c2ccc(C(F)(F)F)cc2O)c2ccncc12 (single isomer, unassigned) [Compound 22]
[1]; read-out: kp (code)
  Kp at 24 h: > 0.3
[1]; read-out: kp (raw)
  Kp at 24 h: 1.1
[1]
  Kpu,u (unbound brain-to-plasma ratio): 0.34
  kpu,u (code): A (A represents a value of >0.3)
NLRP3
  IC50: 0.96 µM

## Cc1ccc(-c2nnc(N[C@H]3COC(C)(C)C3)c3cnccc23)c(O)c1F (single isomer, unassigned) [Compound 12]
[1]; read-out: kp (code)
  Kp at 24 h: > 0.3
[1]; read-out: kp (raw)
  Kp at 24 h: 0.33
[1]
  Kpu,u (unbound brain-to-plasma ratio): 1.3
  kpu,u (code): A (A represents a value of >0.3)
NLRP3
  IC50: 0.82 µM

## C[C@@H]1COCC[C@@H]1Nc1nnc(-c2ccc(Cl)cc2O)c2ccncc12 (single isomer, unassigned) [Compound 18D*]
NLRP3
  IC50: 6.2 µM

## CC1(C)C[C@@H](Nc2nnc(-c3ccc(C(F)F)cc3O)c3ccncc23)CCO1 (single isomer, unassigned) [Compound 16*]
[1]; read-out: kp (code)
  Kp at 24 h: > 0.3
[1]; read-out: kp (raw)
  Kp at 24 h: 0.48
[1]
  Kpu,u (unbound brain-to-plasma ratio): 0.59
  kpu,u (code): A (A represents a value of >0.3)
NLRP3
  IC50: 1.8 µM

## CC1(C)COC[C@@H]1Nc1nnc(-c2ccc(Cl)cc2O)c2ccncc12 (single isomer, unassigned) [Compound 1*]
[1]; read-out: kp (code)
  Kp at 24 h: > 0.3
[1]; read-out: kp (raw)
  Kp at 24 h: 0.9
[1]
  Kpu,u (unbound brain-to-plasma ratio): 0.31
  kpu,u (code): A (A represents a value of >0.3)
NLRP3
  IC50: 1 µM

## CC1(C)COC[C@H]1Nc1nnc(-c2ccc(Cl)cc2O)c2ccncc12 (single isomer, unassigned) [Compound 1B*]
NLRP3
  IC50: 1.8 µM

## Cc1ccc(-c2nnc(N[C@@H]3COC(C)(C)C3)c3cnccc23)c(O)c1F (single isomer, unassigned) [Compound 12B]
NLRP3
  IC50: 3.2 µM

## CC1(C)C[C@H](Nc2nnc(-c3ccc(C(F)(F)F)cc3O)c3ccncc23)CCO1 (single isomer, unassigned) [Compound 11B*]
NLRP3
  IC50: 10 µM

## CC1(C)COCC[C@@H]1Nc1nnc(-c2ccc(Cl)cc2O)c2ccncc12 (single isomer, unassigned) [Compound 3*]
[1]; read-out: kp (code)
  Kp at 24 h: > 0.3
[1]; read-out: kp (raw)
  Kp at 24 h: 0.58
[1]
  Kpu,u (unbound brain-to-plasma ratio): 2.2
  kpu,u (code): A (A represents a value of >0.3)
NLRP3
  IC50: 0.19 µM

## CC1(C)COCC[C@H]1Nc1nnc(-c2ccc(C(F)F)cc2O)c2ccncc12 (single isomer, unassigned) [Compound 17B]
NLRP3
  IC50: 2.4 µM

## CC1(C)C[C@H](Nc2nnc(-c3ccc(Cl)cc3O)c3ccncc23)CCO1 (single isomer, unassigned) [Compound 4B*]
NLRP3
  IC50: 1.7 µM

## CC1(C)COCC[C@H]1Nc1nnc(-c2ccc(C(F)(F)F)cc2O)c2ccncc12 (single isomer, unassigned) [Compound 15B]
NLRP3
  IC50: 18 µM

## CC1(C)OCC[C@@H]1Nc1nnc(-c2ccc(C(F)(F)F)cc2O)c2ccncc12 (single isomer, unassigned) [Compound 22B]
NLRP3
  IC50: 5.9 µM

## C[C@H]1C[C@@H](Nc2nnc(-c3ccc(Cl)cc3O)c3ccncc23)CCO1 (single isomer, unassigned) [Compound 25B*]
NLRP3
  IC50: 0.85 µM

## Cc1ccc(-c2nnc(N[C@@H]3CCOC(C)(C)C3)c3cnccc23)c(O)c1 (single isomer, unassigned) [Compound 14B]
NLRP3
  IC50: 3.6 µM

## CC1(C)COCC[C@H]1Nc1nnc(-c2ccc(Cl)cc2O)c2ccncc12 (single isomer, unassigned) [Compound 3B*]
NLRP3
  IC50: 11 µM

## CC1(C)CC[C@@H](Nc2nnc(-c3ccc(C(F)F)cc3O)c3ccncc23)CO1 (single isomer, unassigned) [Compound 20B]
NLRP3
  IC50: 3.4 µM

## Cc1cc(O)c(-c2nnc(N[C@@H]3COC(C)(C)C3)c3cnccc23)c(F)c1 (single isomer, unassigned) [Compound 21B]
NLRP3
  IC50: 2.3 µM

## C[C@H]1COCC[C@@H]1Nc1nnc(-c2ccc(Cl)cc2O)c2ccncc12 (single isomer, unassigned) [Compound 18C*]
NLRP3
  IC50: 1.2 µM

## Cc1ccc(-c2nnc(N[C@@H]3CCC(C)(C)OC3)c3cnccc23)c(O)c1 (single isomer, unassigned) [Compound 10B*]
NLRP3
  IC50: 7.9 µM

## Cc1ccc(-c2nnc(N[C@@H]3COC(C)(C)C3)c3cnccc23)c(O)c1 [Compound 5B, (S)-2-(4-((5,5-dimethyltetrahydrofuran-3-yl)amino)pyrido[3,4-d]pyridazin-1-yl)-5-methylphenol]
NLRP3
  IC50: 0.21 µM

## Cc1ccc(-c2nnc(N[C@@H]3CCOCC3(C)C)c3cnccc23)c(O)c1 (single isomer, unassigned) [Compound 13B]
NLRP3
  IC50: 9.8 µM

## CC1(C)C[C@H](Nc2nnc(-c3ccc(C(F)F)cc3O)c3ccncc23)CO1 (single isomer, unassigned) [Compound 23B]
[1]; read-out: kp (code)
  Kp at 24 h: ≤ 0.3
[1]; read-out: kp (raw)
  Kp at 24 h: 0.28
[1]
  Kpu,u (unbound brain-to-plasma ratio): 0.09
  kpu,u (code): B (B represents a value of ≤0.3)

## CN1CCO[C@H](CNc2nnc(-c3ccc(C(F)(F)F)cc3O)c3ccncc23)C1 (single isomer, unassigned) [Compound 6B*]
NLRP3
  IC50: 1.26 µM

## Oc1cc(C(F)(F)F)ccc1-c1nnc(N[C@@H]2COC3(CC3)C2)c2cnccc12 (single isomer, unassigned) [Compound 19B]
NLRP3
  IC50: 1.2 µM
